Measured values published in US6184254A, “Methods of identifying modulators of perivascular sensory nerve Ca2+ receptors” (priority 1998, dated 2001).
Entries after “also recorded” stand apart in the source; their conditions may differ. Where two headings read alike, the source gives them in different places. Ends that are not written are not given here.

Legend:
[1] = test system: Ca^2+-induced relaxation of mesenteric resistance arteries; assay: Inhibition of Ca2+-induced relaxation of mesenteric resistance arteries by antagonists or denervation; parameters: species or system rat; conditions: for Result (antagonist effect on Ca2+-induced relaxation): Table 3
CaR = conditions: cited from earlier work
[2] = test system: mesenteric resistance arteries; assay: Isometric force/active stress of Ca2+-depleted mesenteric resistance arteries; parameters: species or system Wistar rat
Procedure: In the course of studies designed to examine the hypothesis that the Ca^2+ force relationship of resistance arteries is altered in genetically hypertensive rats, it was discovered that physiologic concentrations of extracellular Ca^2+ affected the repeated contraction elicited by norepinephrine in Ca^2+ -free medium.
Mesenteric resistance arteries were isolated from Wistar rats; and intracellular Ca^2+ and isometric force were measured using a fura-based method and w ire myography (Bian, et aL, 1995b). Vessels were depleted of releasable Ca^2+ by repeated contraction with norepinephrine; and extracellular Ca^2+ was then cumulatively added back from 0.025-2.5 mmol/L in the presence of a n agonist. […] It was concluded that extracellular Ca^2+ limits force generation by depressing myofilament Ca^2+ sensitivity and decreasing intracellular Ca^2+ secondary to activation of a Ca^2+ -sensitive K^+ channel.

mean arterial pressure = assay: Mean arterial pressure of conscious SHR and WKY rats after bolus administration; format: in vivo, rat (SHR and WKY)
Description: FIG. 12. Effect of bolus administration of 3 μmol/kg NPS R467 on mean arterial pressure (carotid artery catheter) of conscious SHR rats.
FIG. 13. Effect of bolus administration of 1 μmol/kg NPS R831 on mean arterial pressure (carotid artery catheter) of conscious SHR and WKY.
The initial studies assessed the effect of bolus administration of NPS R467 on mean arterial pressure of conscious rats of both strains.
As noted, one result of the studies in Example 1 was the identification of NPS R831 as a candidate compound for assessment of blood pressure lowering effects. A study was performed in which the effect of a bolus injection of NPS R831 on blood pressure of a single SHR and a single WKY rat were measured.

[3] = test system: norepinephrine precontracted mesenteric resistance arteries (perivascular CaR); assay: Vasorelaxation of norepinephrine precontracted mesenteric resistance arteries; parameters: species or system rat
Description: Branch I and II mesenteric resistance arteries, internal diameter […], are isolated from the mesenteric arcade of male Wistar rats and placed in ice cold physiologic salt solution (PSS) of the following composition in mM: NaCl, 130-140; KCl, 4.7; MgSO4.7H2 O, 1.17; NaHCO3, 5-15; KH2 PO4, 1.15 and Na2 HPO4, 1.10, CaCl2, 1.0; HEPES, 50; and glucose, 5, with a pH of 7.4 when gassed with 95% air, 5% CO2.
After cleaning of fat and connective tissue, the arterial segments are denuded of endothelium by rubbing a human hair in and out of the lumen. The vessel segments are then mounted between a force transducer and translation stage of a wire myograph using tungsten wire and the PSS is warmed to 37° C. and gassed with 95% air, 5% CO2 to provide a pH of 7.4. The vessel segments are then stretched to a length which is equivalent to an internal diameter of […] and allowed to equilibrate for 30 minutes. The vessels are then exposed to […] norepinephrine for three 5 minute periods to induce reproducible contractile responses. […] The vessel is then washed and allow to relax to baseline.
To determine whether the test compound is a vasodilator, the vessel is again precontracted by the addition of […] norepinephrine, and after the force response reaches a steady state, the test compound is cumulatively added and the effect on force generation is determined. […] Ca^2+ receptor agonists that are found to be endothelium-independent vasodilators and whose dilator activity is blocked by quinacrine and sensory denervation are moved onto the tertiary in vivo blood pressure screen.
(§1) Mesenteric resistance arteries were precontracted with either 100 mM K^+ (in the presence of 1 μM phentolamine) or 5 μM norepinephrine and response to cumulative addition of NPS R831 (10 nM to 50 μM) determined.

[4] = test system: voltage sensitive Ca^2+ channel; conditions: "in view of statements"; cited from earlier work
Ca^2+ channels = target: T1, Ca^2+ channels (Rattus norvegicus, UniProt P22002); assay: Relaxation of mesenteric arteries precontracted with 100 mM K+ (Ca2+ channel blocking activity)
T1 construct: voltage sensitive Ca^2+ channels present on smooth muscle; from tissue; host or cells: isolated mesenteric resistance arteries (rat)
Description: Prior studies have shown that the parathyroid CaR agonists of the NPS R467 class block voltage sensitive Ca^2+ channel at mid-micromolar concentrations. […] The rationale was based on the facts that (a) K^+ -induced contraction is the result of influx of Ca^2+ into the cell through voltage gated Ca^2+ channels, and (b) Ca^2+ -induced relaxation is not observed during K^+ depolarization. Thus, CaR agonist mediated relaxation observed during K^+ induced contraction would reflect Ca^2+ channel blocking activity while […] relaxation observed during norepinephrine-induced contraction (which results from both Ca^2+ release and Ca^2+ entry) would be a mixture of Ca^2+ receptor stimulated relaxation and Ca^2+ channel activity.
as §1, with “determined. […] To determine that the high sensitivity component observed during norepinephrine-induced contraction is mediated by the perivascular CaR two additional studies are conducted.” for “determined.”

rat tail arteries = conditions: cited from earlier work
[5] = FIG. 16, 3 μM miconazole, 1 μM pentobarbital or 1 μM quinacrine, p<0.05
[6] = bolus injection, single SHR and single WKY

T1 sequence (P22002 whole entry): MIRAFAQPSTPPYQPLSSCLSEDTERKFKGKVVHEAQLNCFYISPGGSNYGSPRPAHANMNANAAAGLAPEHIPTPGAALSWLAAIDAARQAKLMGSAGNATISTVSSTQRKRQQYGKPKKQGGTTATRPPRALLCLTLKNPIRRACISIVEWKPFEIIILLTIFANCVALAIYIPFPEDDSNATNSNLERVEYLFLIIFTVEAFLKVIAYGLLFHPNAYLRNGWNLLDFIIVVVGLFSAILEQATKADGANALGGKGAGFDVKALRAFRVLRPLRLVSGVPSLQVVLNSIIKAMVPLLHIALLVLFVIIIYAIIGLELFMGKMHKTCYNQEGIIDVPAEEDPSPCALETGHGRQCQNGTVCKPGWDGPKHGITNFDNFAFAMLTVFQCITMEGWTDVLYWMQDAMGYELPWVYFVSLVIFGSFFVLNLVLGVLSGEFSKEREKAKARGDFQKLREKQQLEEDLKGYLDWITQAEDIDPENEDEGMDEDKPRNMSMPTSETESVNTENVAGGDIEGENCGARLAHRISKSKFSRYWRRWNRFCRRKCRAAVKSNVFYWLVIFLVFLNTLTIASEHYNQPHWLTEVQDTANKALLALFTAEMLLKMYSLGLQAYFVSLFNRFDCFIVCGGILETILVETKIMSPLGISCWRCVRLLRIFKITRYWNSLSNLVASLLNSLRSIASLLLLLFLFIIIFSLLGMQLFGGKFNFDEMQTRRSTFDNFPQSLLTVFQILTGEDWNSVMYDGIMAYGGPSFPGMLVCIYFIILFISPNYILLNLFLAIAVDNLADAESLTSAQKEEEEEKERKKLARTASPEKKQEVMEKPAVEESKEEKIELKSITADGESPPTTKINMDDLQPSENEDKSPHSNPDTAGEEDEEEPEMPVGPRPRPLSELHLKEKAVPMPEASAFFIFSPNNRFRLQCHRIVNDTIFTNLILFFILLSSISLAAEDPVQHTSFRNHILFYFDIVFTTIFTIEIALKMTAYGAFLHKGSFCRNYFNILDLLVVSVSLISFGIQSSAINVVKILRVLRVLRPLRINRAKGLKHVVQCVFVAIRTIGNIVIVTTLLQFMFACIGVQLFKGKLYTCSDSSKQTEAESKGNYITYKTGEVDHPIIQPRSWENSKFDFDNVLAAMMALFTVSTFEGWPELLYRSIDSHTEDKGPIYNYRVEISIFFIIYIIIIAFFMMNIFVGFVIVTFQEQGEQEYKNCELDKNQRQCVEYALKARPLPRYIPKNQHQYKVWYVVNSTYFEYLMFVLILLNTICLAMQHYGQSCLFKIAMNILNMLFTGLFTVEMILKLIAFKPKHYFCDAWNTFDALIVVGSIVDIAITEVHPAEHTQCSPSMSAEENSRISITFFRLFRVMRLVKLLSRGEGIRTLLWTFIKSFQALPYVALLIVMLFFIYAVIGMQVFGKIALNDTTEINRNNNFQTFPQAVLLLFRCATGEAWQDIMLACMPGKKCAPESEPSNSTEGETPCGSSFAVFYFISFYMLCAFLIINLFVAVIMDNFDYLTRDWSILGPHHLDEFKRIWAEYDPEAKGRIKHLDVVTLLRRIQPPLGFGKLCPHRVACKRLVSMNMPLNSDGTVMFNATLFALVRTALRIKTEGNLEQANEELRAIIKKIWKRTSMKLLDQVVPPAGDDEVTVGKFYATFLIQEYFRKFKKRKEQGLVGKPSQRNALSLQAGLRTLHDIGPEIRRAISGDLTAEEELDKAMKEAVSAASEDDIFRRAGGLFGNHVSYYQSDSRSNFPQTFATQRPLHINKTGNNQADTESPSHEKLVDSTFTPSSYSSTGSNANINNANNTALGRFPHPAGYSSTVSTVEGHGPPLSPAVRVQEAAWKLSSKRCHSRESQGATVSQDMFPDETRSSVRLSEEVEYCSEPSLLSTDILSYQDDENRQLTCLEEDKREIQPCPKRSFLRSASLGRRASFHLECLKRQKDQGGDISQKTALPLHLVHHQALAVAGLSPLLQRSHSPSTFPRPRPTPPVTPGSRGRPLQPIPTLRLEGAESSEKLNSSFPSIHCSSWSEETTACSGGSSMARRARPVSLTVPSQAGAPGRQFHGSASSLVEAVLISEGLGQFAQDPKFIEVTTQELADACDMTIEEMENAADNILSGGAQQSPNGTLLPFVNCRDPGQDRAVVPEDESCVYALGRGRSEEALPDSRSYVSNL
T1 sequence (P54290 25-944 partner limits assumed): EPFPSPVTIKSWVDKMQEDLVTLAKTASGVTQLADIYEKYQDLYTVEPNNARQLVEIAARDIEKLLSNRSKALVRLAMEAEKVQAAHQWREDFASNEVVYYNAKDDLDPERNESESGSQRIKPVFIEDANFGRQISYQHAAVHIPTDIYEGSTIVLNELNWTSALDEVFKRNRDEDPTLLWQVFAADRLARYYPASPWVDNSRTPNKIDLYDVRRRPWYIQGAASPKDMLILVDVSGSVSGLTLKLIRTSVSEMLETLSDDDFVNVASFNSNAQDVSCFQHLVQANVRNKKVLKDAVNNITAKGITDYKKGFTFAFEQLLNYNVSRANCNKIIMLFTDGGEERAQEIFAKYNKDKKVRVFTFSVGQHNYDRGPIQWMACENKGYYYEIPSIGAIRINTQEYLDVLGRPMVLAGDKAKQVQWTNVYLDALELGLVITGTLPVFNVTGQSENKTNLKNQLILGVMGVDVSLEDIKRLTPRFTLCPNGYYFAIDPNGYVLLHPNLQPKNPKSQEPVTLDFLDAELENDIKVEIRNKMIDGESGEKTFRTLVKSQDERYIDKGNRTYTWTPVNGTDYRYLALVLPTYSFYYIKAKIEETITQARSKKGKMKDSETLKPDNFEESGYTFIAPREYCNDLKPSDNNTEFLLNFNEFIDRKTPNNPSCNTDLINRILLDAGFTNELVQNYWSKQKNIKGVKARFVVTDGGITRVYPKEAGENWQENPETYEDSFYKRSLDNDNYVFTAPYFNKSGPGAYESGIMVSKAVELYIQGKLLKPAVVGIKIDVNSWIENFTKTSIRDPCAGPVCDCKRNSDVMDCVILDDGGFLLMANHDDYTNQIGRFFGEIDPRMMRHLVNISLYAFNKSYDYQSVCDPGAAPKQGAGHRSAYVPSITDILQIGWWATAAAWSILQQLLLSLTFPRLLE
T1 sequence (P54290 945-1091 partner limits assumed): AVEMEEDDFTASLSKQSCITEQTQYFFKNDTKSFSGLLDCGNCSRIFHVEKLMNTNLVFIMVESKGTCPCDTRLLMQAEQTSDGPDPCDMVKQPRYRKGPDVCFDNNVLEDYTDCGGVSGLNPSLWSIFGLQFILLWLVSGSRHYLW

spantide II
Result (antagonist effect on Ca2+-induced relaxation) [1]: no effect

CC(=O)NC1(c2ccccc2)CCN(CC[C@H](CN(C)C(=O)c2ccccc2)c2ccc(Cl)c(Cl)c2)CC1 [SR48968]
Result (antagonist effect on Ca2+-induced relaxation) [1]: no effect

NCCCNCCCCNCCCN [spermine]
activation of CaR (CaR): activated

Oc1ccccc1 [phenol]
effect on Ca2+-induced relaxation [1]: completely blocks and often reverses; also recorded: significantly inhibited; also recorded: completely inhibits

CCN(CC)CCCC(C)Nc1c2ccc(Cl)cc2nc2ccc(OC)cc12 (centres unmarked) [quinacrine]
effect on Ca2+-induced relaxation [1, 5]: significantly attenuated | effect on Ca2+-induced relaxation ([1]; PLA2 blockade): significantly attenuates

4 Cl-D-Phe^6,Leu^17 -VIP
Result (antagonist effect on Ca2+-induced relaxation) [1]: no effect

CC(C)Oc1cccc(CC(=O)N2CCC[C@](CC[N+]34CCC(c5ccccc5)(CC3)CC4)(c3ccc(Cl)c(Cl)c3)C2)c1 [SRI40333]
Result (antagonist effect on Ca2+-induced relaxation) [1]: no effect

Oc1ccc2c3c1O[C@H]1c4[nH]c5c(c4C[C@@]4(O)[C@@H](C2)N(CC2CC2)CC[C@]314)C[C@@]1(O)[C@H]2Cc3ccc(O)c4c3[C@@]1(CCN2CC1CC1)[C@H]5O4 [nor-binaltorphmine]
Result (antagonist effect on Ca2+-induced relaxation) [1]: no effect

neomycin
activation of CaR (CaR): activated

charybdotoxin
effect on decrease in active stress induced by 1.6 and 2.5 mmol/L extracellular Ca2+ [2]: inhibited | effect on Ca2+-induced relaxation ([1]; prior results, K / KCa channel blockade): antagonized

[Gd+3] [Gd^3+]
activation of CaR (CaR): activated

COc1ccc2c(c1)c(CC(=O)O)c(C)n2C(=O)c1ccc(Cl)cc1 [indomethacin]
Result (antagonist effect on Ca2+-induced relaxation) ([1]; at 1.5 mM Ca2+): partial effect

COc1cccc([C@@H](C)NCCCc2ccccc2)c1 [NPS R467]
time for development of blood pressure lowering effect (mean arterial pressure; bolus, both strains): 30 to 40 min | blood pressure lowering effect (mean arterial pressure; bolus, conscious rats, both strains): modest and slowly developing | effect of TEA on relaxation induced by low range of the drug ([3]; 10 mM TEA, 10's of nM drug): completely antagonized | effect of TEA on relaxation induced by higher concentration of the drug ([3]; TEA, higher concentration): not blocked by TEA | concentration causing a larger relaxation ([3]; biphasic relaxation, high range): 3 to 10 µM | concentration inducing relaxation of similar extent to the Ca2+ relaxation ([3]; biphasic relaxation, low range): 50 to 300 nM | concentration activating the perivascular Ca2+ receptor and inducing relaxation ([3]; interpretation consistent with data): 30 to 300 nM | concentration of non-selective channel effects [4]: ≥ 4 µM

CCCC(C)C1(CC)C(=O)NC(=O)NC1=O (centres unmarked) [pentobarbital]
effect on Ca2+-induced relaxation [1]: significantly attenuated | effect on Ca2+-induced relaxation ([1]; 5 mM Ca2+): significantly attenuated | effect on Ca2+-induced relaxation ([1]; Ca2+ 1.5-3 mM): completely antagonized

COc1cccc([C@@H](C)NCCCc2ccccc2OC)c1 [NPS R831]
blood pressure lowering effect (mean arterial pressure; [6]): moderately rapid (within 5 min) blood pressure lowering effect in both strains | onset of blood pressure lowering effect (mean arterial pressure; [6]): ≤ 5 min | shift of relaxation response during K+- vs norepinephrine-induced contraction (Ca^2+ channels; 100 mM K+ (1 μM phentolamine) vs 5 μM norepinephrine, NPS R831 10 nM to 50 μM): significantly shifted to the right (less sensitive) | concentration of Ca2+ channel blocking mechanism of action (Ca^2+ channels; K+ vs norepinephrine contraction): mid-μM concentrations | IC50 (Ca^2+ channels; mesenteric arteries precontracted with 100 mM K+, read-out: IC50 for block of Ca2+ channels): ~1.5 µM | potency in relaxing precontracted arteries vs activating the parathyroid CaR ([3]; compared with parathyroid CaR system): relaxes precontracted arteries with the same potency as it activates the parathyroid CaR system | concentration of possibly perivascular CaR mediated component ([3]; norepinephrine-induced contraction): sub-micromolar concentrations

COc1ccccc1CN[C@H]1CCCN[C@H]1c1ccccc1 [CP99, 994]
Result (antagonist effect on Ca2+-induced relaxation) [1]: no effect

tin protoporphorin IX
Result (antagonist effect on Ca2+-induced relaxation) [1]: no effect

CSCC[C@H](NC(=O)[C@H](CC(C)C)NC(=O)CNC(=O)[C@H](Cc1ccccc1)NC(=O)[C@H](Cc1ccccc1)NC(=O)[C@H](CCC(N)=O)NC(=O)[C@H](CCC(N)=O)NC(=O)[C@@H]1CCCN1C(=O)CNC(=O)[C@H](CC(C)C)NC(=O)[C@H](CC(C)C)NC(=O)[C@H](Cc1ccc(O)cc1)NC(=O)CNC(=O)[C@H](C)NC(=O)[C@H](CO)NC(=O)[C@H](CC(N)=O)NC(=O)[C@H](CC(C)C)NC(=O)[C@@H](NC(=O)[C@H](Cc1c[nH]c2ccccc12)NC(=O)CN)[C@@H](C)O)C(N)=O [galantide]
Result (antagonist effect on Ca2+-induced relaxation) [1]: no effect

CN1[C@@H]2CC[C@H]1C[C@@H](O)C2 [tropine]
Result (antagonist effect on Ca2+-induced relaxation) [1]: no effect

CC(=O)N(C)C1(c2ccccc2)CCN(CCC[C@]2(c3ccc(Cl)c(Cl)c3)CCCN(C(=O)c3ccccc3)C2)CC1 [SR 142801]
Result (antagonist effect on Ca2+-induced relaxation) [1]: no effect

COC(=O)[C@@H](N)CCCNC(=N)N[N+](=O)[O-] [L-NAME]
effect on Ca2+-induced relaxation ([1]; 100 μM L-NAME): inhibited/reversed | effect on Ca2+-induced relaxation ([1]; L-NAME pre-treatment): partially inhibited | Result (antagonist effect on Ca2+-induced relaxation) [1]: no effect

C[C@@H]1O[C@@H](O[C@H]2C[C@@H](O)[C@]3(CO)[C@H]4[C@H](O)C[C@]5(C)[C@@H](C6=CC(=O)OC6)CC[C@]5(O)[C@@H]4CC[C@]3(O)C2)[C@H](O)[C@H](O)[C@H]1O [ouabain]
effect of pre-treatment on Ca2+-induced relaxation of rat tail arteries (rat tail arteries): antagonized

CGRP (8-37): CGRP antagonist (VTHRLAGLLSRSGGVVKNNFVPTNVGSKAF; ends and bridges not checked; UniProt P06881 90-119, looked up, fragment)
Result (antagonist effect on Ca2+-induced relaxation) [1]: no effect

Clc1ccc(COC(Cn2ccnc2)c2ccc(Cl)cc2Cl)c(Cl)c1 (centres unmarked) [miconazole]
effect on Ca2+-induced relaxation ([1]; 5 mM Ca2+): significantly attenuated | effect on Ca2+-induced relaxation ([1]; Ca2+ 1.5-3 mM): completely antagonized | effect on Ca2+-induced relaxation [1, 5]: significantly attenuated

[La+3] [La^3+]
activation of CaR (CaR): activated

CC[N+](CC)(CC)CC [TEA]
effect on Ca2+-induced relaxation [1]: completely inhibited; also recorded: antagonized
